Results as given in patent US20230295152A1 (SENDA BIOSCIENCES, INC., priority 2019, published 2023).

Target: T1, AHR (Homo sapiens, UniProt P35869)
T1 construct: other cell line with a DRE-luciferase reporter stably transfected; endogenous in cells; host or cells: HepG2 AhR-Lucia reporter cells
T1 sequence (P35869 11-848): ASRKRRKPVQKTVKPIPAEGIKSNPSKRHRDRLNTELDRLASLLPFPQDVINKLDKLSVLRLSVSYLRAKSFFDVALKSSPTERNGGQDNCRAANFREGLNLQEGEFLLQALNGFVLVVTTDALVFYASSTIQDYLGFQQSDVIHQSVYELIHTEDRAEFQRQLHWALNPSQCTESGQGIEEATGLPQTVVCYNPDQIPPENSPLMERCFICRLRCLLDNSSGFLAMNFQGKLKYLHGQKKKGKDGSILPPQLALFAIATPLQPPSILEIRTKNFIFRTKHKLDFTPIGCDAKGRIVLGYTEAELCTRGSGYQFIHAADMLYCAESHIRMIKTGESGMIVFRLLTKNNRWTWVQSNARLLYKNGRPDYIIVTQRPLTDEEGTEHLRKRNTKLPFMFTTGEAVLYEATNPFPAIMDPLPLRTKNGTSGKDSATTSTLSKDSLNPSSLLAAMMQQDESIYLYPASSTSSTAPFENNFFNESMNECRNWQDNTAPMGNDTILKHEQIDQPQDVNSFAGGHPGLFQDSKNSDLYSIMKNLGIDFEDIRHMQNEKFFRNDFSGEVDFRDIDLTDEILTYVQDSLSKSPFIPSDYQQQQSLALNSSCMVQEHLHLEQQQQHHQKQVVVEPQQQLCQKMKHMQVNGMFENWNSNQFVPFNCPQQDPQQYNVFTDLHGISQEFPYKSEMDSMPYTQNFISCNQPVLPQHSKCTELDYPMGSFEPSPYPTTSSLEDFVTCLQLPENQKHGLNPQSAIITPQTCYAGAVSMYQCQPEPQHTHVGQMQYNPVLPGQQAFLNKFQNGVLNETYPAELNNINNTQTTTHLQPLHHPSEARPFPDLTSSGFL
Assay: DRE-Luciferase Reporter Assay, HepG2 AhR-Lucia reporter cells
Assay type: cell-based
Conditions: with AHR activating ligand at EC50, read-out: HepG2-Luc IC50
Excerpt: AHR binds to Dioxin Responsive Elements (DRE) upstream of genes that it activates. One measure of AHR activity is activation of a reporter gene, such as luciferase, downstream of one or multiple DRE elements. Luciferase activity will reflect activation and inhibition of AHR in the cells expressing his reporter. 20000 Human HepG2 liver carcinoma—AhR-Lucia reporter cells or Human HT29 colon adenocarcinoma—AhR reporter cells or other cell line with a DRE-luciferase reporter stably transfected were plated in Eagle's Minimal Essential Medium, 10% heat-inactivated FBS, 1× non-essential amino acids Pen-Strep (10,000 U/mL) and Normocin (100 ug/mL) in plates (96-well, 384-well or other plates) and incubated overnight at 37° C. in a CO2 incubator and treated with and without AhR antagonists at a log dilution starting at 100 uM.
After 1 hr that cells were plated an AHR activating ligand, such as TCDD, kynurenine, ITE (2-(1H-indole-3-ylcarbonyl)-4-thiazolecarboxylic methyl ester), VAF347, BNF (beta-naphthoflavone), FICZ (6-formylindolo(3,2-b) carbazole) or other AHR ligands at their specific EC50 concentration, were added to the cells with or without AHR antagonist.
Cells were incubated for 24 or 48 hours or another time point and then, supernatant was analyzed for determination of luciferase activity as a read-out of the AHR activation or inhibition. Luciferase was measured with the commercial kit QUANTI-Luc™ assay solution kit from Invivogen following the manufacturer's instructions.
The level of luciferase with only agonist ligand added was the maximum signal while the luciferase with […] was the minimum signal. IC50 values were determined as the concentration which inhibits half of the luciferase activity.

| Compound | IC50 |
| --- | --- |
| C[C@@H](CO)n1cnc2c(-c3ccc(=O)[nH]c3)nc(-c3ccc(Cl)cc3)cc2c1=O [Compound 2] | 0.1 to 0.5 µM |
| O=c1c2cc(-c3cnc(C(F)(F)F)s3)nc(-c3cccnc3)c2ncn1[C@H]1COC[C@@H]1O [Compound 169, 3-((3S,4R)-4-hydroxytetrahydrofuran-3-yl)-8-(pyridin-3-yl)-6-(2-(trifluoromethyl)thiazol-5-yl)pyrido[3,4-d]pyrimidin-4(3H)-one] | < 0.1 µM |
| C[C@@H](CO)n1cnc2c(-c3cccnc3)nc(C(=O)N(C)C)cc2c1=O [Compound 190, (S)-3-(1-hydroxypropan-2-yl)-N,N-dimethyl-4-oxo-8-(pyridin-3-yl)-3,4-dihydropyrido[3,4-d]pyrimidine-6-carboxamide] | > 0.5 µM |
| CC(C)(O)Cn1cnc2c(-c3cccnc3)nc(-c3cnc(C(F)(F)F)s3)cc2c1=O [Compound 87] | < 0.1 µM |
| C[C@@H](CO)n1cnc2c(-c3cn[nH]c3)nc(-c3ccc(C(F)(F)F)cn3)cc2c1=O [Compound 191, (S)-3-(1-hydroxypropan-2-yl)-8-(1H-pyrazol-4-yl)-6-(5-(trifluoromethyl)pyridin-2-yl)pyrido[3,4-d]pyrimidin-4(3H)-one] | < 0.1 µM |
| C[C@@H](CO)n1cnc2c(-c3cnn(C)c3)nc(-c3cnc(C(F)(F)F)s3)cc2c1=O [Compound 168, (S)-3-(1-hydroxypropan-2-yl)-8-(1-methyl-1H-pyrazol-4-yl)-6-(2-(trifluoromethyl)thiazol-5-yl)pyrido[3,4-d]pyrimidin-4(3H)-one] | < 0.1 µM |
| O=c1c2cc(-c3ccc(C(F)(F)F)nc3)nc(-c3cccnc3)c2ncn1-c1ccccc1 [Compound 133, 3-phenyl-8-(pyridin-3-yl)-6-(6-(trifluoromethyl)pyridin-3-yl)pyrido[3,4-d]pyrimidin-4(3H)-one] | < 0.1 µM |
| C[C@@H](CO)n1cnc2c(-c3cccnc3)nc(-c3cnsc3)cc2c1=O [Compound 53] | 0.1 to 0.5 µM |
| O=c1c2cc(-c3ccc(Cl)cc3)nc(-c3cccc(F)c3)c2ncn1C[C@H](O)C(F)(F)F (stereo in doubt) [Compound 41] | < 0.1 µM |
| O=c1c2cc(-c3ccc(C4CC4)nc3)nc(-c3cccnc3)c2ncn1C[C@@H](O)C(F)(F)F [Compound 121, (R)-6-(6-cyclopropylpyridin-3-yl)-8-(pyridin-3-yl)-3-(3,3,3-trifluoro-2-hydroxypropyl)pyrido[3,4-d]pyrimidin-4(3H)-one] | < 0.1 µM |
| C[C@@H](CO)n1cnc2c(-c3cccnc3)nc(-c3cnnn3C)cc2c1=O [Compound 184, (S)-3-(1-hydroxypropan-2-yl)-6-(1-methyl-1H-1,2,3-triazol-5-yl)-8-(pyridin-3-yl)pyrido[3,4-d]pyrimidin-4(3H)-one] | > 0.5 µM |
| Cc1ccc(-c2cc3c(=O)n([C@@H](C)CO)cnc3c(-c3cccnc3)n2)cn1 [Compound 98] | < 0.1 µM |
| Cn1cc(-c2nc(-c3cnc(C(F)(F)F)s3)cc3c(=O)n(CC(C)(C)O)cnc23)cn1 [Compound 170, 3-(2-hydroxy-2-methylpropyl)-8-(1-methyl-1H-pyrazol-4-yl)-6-(2-(trifluoromethyl)thiazol-5-yl)pyrido[3,4-d]pyrimidin-4(3H)-one] | < 0.1 µM |
| C[C@@H](CO)n1cnc2c(-c3cccnc3)nc(C3CCCCC3)cc2c1=O [Compound 181, (S)-6-cyclohexyl-3-(1-hydroxypropan-2-yl)-8-(pyridin-3-yl)pyrido[3,4-d]pyrimidin-4(3H)-one] | > 0.5 µM |
| Cn1cc(-c2nc(-c3ccc(C(F)(F)F)cn3)cc3c(=O)n(C[C@H](O)C(F)(F)F)cnc23)cn1 [Compound 147] | < 0.1 µM |
| C[C@@H](CO)n1cnc2c(N3CCCCC3)nc(-c3ccc(C(F)(F)F)nc3)cc2c1=O [Compound 175, (S)-3-(1-hydroxypropan-2-yl)-8-(piperidin-1-yl)-6-(6-(trifluoromethyl)pyridin-3-yl)pyrido[3,4-d]pyrimidin-4(3H)-one] | < 0.1 µM |
| Cn1cc(-c2nc(-c3ccc(C4CC4)nc3)cc3c(=O)n(C[C@@H](O)C(F)(F)F)cnc23)cn1 [Compound 135, (R)-6-(6-cyclopropylpyridin-3-yl)-8-(1-methyl-1H-pyrazol-4-yl)-3-(3,3,3-trifluoro-2-hydroxypropyl)pyrido[3,4-d]pyrimidin-4(3H)-one] | < 0.1 µM |
| CCN(CC)c1nc(-c2ccc(C(F)(F)F)nc2)cc2c(=O)n([C@@H](C)CO)cnc12 [Compound 174, (S)-8-(diethylamino)-3-(1-hydroxypropan-2-yl)-6-(6-(trifluoromethyl)pyridin-3-yl)pyrido[3,4-d]pyrimidin-4(3H)-one] | < 0.1 µM |
| C[C@@H](C(=O)O)n1cnc2c(-c3cccnc3)nc(-c3ccc(C(F)(F)F)nc3)cc2c1=O [Compound 155, (S)-2-(4-oxo-8-(pyridin-3-yl)-6-(6-(trifluoromethyl)pyridin-3-yl)pyrido[3,4-d]pyrimidin-3(4H)-yl)propanoic acid] | > 0.5 µM |
| Cc1ncc(-c2cc3c(=O)n([C@@H](C)CO)cnc3c(-c3cccnc3)n2)cn1 [Compound 93] | 0.1 to 0.5 µM |
| C[C@@H](CO)n1cnc2c(-n3cccn3)nc(-c3ccc(Cl)cc3)cc2c1=O [Compound 166, (S)-6-(4-chlorophenyl)-3-(1-hydroxypropan-2-yl)-8-(1H-pyrazol-1-yl)pyrido[3,4-d]pyrimidin-4(3H)-one] | < 0.1 µM |
| CC(C)(O)Cn1cnc2c(-c3cccnc3)nc(-c3cnc(C(F)(F)F)nc3)cc2c1=O [Compound 96] | < 0.1 µM |
| Cc1ccc(-c2cc3c(=O)n([C@@H](C)CO)cnc3c(-c3cccnc3)n2)nc1 [Compound 186, (S)-3-(1-hydroxypropan-2-yl)-6-(5-methylpyridin-2-yl)-8-(pyridin-3-yl)pyrido[3,4-d]pyrimidin-4(3H)-one] | < 0.1 µM |
| Cc1cnc(-c2cc3c(=O)n([C@@H](C)CO)cnc3c(-c3cccnc3)n2)nc1 [Compound 187, (S)-3-(1-hydroxypropan-2-yl)-6-(5-methylpyrimidin-2-yl)-8-(pyridin-3-yl)pyrido[3,4-d]pyrimidin-4(3H)-one] | > 0.5 µM |
| Cn1cnc2c(-c3cccnc3)nc(-c3ccc(OC(F)(F)F)cc3)cc2c1=O [Compound 28] | < 0.1 µM |
| C[C@@H](CO)n1cnc2c(-c3cnsc3)nc(-c3cnsc3)cc2c1=O [Compound 56] | 0.1 to 0.5 µM |
| Cn1cc(-c2nc(-c3ccc(C(F)(F)F)cn3)cc3c(=O)n([C@@H]4COC[C@@H]4O)cnc23)cn1 [Compound 149, 3-((3R,4R)-4-hydroxytetrahydrofuran-3-yl)-8-(1-methyl-1H-pyrazol-4-yl)-6-(5-(trifluoromethyl)pyridin-2-yl)pyrido[3,4-d]pyrimidin-4(3H)-one] | < 0.1 µM |
| CC(C)(O)Cn1cnc2c(N3CCCCC3)nc(-c3ccc(C(F)(F)F)nc3)cc2c1=O [Compound 179, 3-(2-hydroxy-2-methylpropyl)-8-(piperidin-1-yl)-6-(6-(trifluoromethyl)pyridin-3-yl)pyrido[3,4-d]pyrimidin-4(3H)-one] | < 0.1 µM |
| CC(C)(O)Cn1cnc2c(-c3cccnc3)nc(-c3cccnc3)cc2c1=O [Compound 59] | > 0.5 µM |
| C[C@@H](O)Cn1cnc2c(-c3cnn(C)c3)nc(-c3ccc(C(F)(F)F)nc3)cc2c1=O [Compound 108, (R)-3-(2-hydroxypropyl)-8-(1-methyl-1H-pyrazol-4-yl)-6-(6-(trifluoromethyl)pyridin-3-yl)pyrido[3,4-d]pyrimidin-4(3H)-one] | < 0.1 µM |
